In ChEMBL document CHEMBL1201862, “PubChem BioAssay data set” (2004):
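Each compound was tested at five concentrations against cells in 96-well plates for 48 hours. GI50 marks 50% less growth.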 Active and inactive are the calls of the source. Cut-off read from the data, not from the text of the source: active = GI50 up to about 1.1 µM and inactive = higher.

Tests used:
Assay in all cases: NCI tumour cell line growth inhibition, 48 h
[1] = test system: BT-549
[2] = test system: LXFL 529
[3] = test system: DMS-273
[4] = test system: DLD-1
[5] = test system: SNB-78
[6] = test system: M19-MEL
[7] = test system: RXF 631
[8] = test system: HOP-18
[9] = test system: XF498

## COc1ccc2oc(=O)c(-c3nc4ccccc4o3)cc2c1
[1]
  GI50: > 100 µM (inactive)

## CCn1c2c(c3ccccc3c1=O)C(=O)c1ccccc1-2
[1]
  GI50: > 100 µM (inactive)

## CN(C)c1ccc(-c2cc(O)c3ccccc3n2)cc1
[2]
  GI50: > 100 µM (inactive)
[3]
  GI50: > 100 µM (inactive)
[4]
  GI50: > 100 µM (inactive)
[5]
  GI50: > 100 µM (inactive)
[6]
  GI50: > 100 µM (inactive)

## Cc1c2c(nc3ccccc13)C(=O)c1cccnc1C2=O
[1]
  GI50: 61.8 µM (inactive)

## NC(=O)NNc1nc2ccccc2c(=O)n1NC(=O)C(=O)Nc1ccc(Cl)cc1Cl
[1]
  GI50: > 100 µM (inactive)

## CCC1C(=O)OCc2c1cc1n(c2=O)Cc2cc3ccccc3nc2-1 (stereo unspecified)
[1]
  GI50: 4.38 µM (inactive)

## S=C(Nc1cccc(Cl)c1)Nc1ccccn1
[1]
  GI50: > 100 µM (inactive)

## Cc1ccccc1C1=[N+]([O-])c2ccccc2C1=O
[7]
  GI50: 23.6 µM (inactive)
[2]
  GI50: 14.9 µM (inactive)
[8]
  GI50: 19.6 µM (inactive)
[4]
  GI50: 17.3 µM (inactive)
[9]
  GI50: 17.4 µM (inactive)
[6]
  GI50: 15.2 µM (inactive)

## CCN1/C(=C/C#C/C(C)=C\c2sc3ccc(Cl)cc3[n+]2CC)Sc2ccc(Cl)cc21
[1]
  GI50: 2.14 µM (inactive)

## N#Cc1c(O)cc(=O)n2c1[nH]c1ccccc12
[1]
  GI50: > 100 µM (inactive)

## Cc1ccc2c(ccc(/C=C/c3ccc(O)c4ncccc34)[n+]2C)c1
[2]
  GI50: 1.16 µM (inactive)
[8]
  GI50: 13.1 µM (inactive)
[3]
  GI50: 2.07 µM (inactive)
[4]
  GI50: 2.72 µM (inactive)
[5]
  GI50: 9.77 µM (inactive)
[9]
  GI50: 3.19 µM (inactive)
[6]
  GI50: 6.08 µM (inactive)

## CC1(C)CCCCCCCCCC2CC2CCC(C)(C)C1=O (stereo unspecified)
[1]
  GI50: 34.4 µM (inactive)

## CC(=O)C(CN(CC(C)C)CC(C)C)C(c1ccccc1)c1c(O)c2ccccc2oc1=O (stereo unspecified)
[7]
  GI50: > 100 µM (inactive)
[2]
  GI50: > 100 µM (inactive)
[4]
  GI50: > 100 µM (inactive)
[6]
  GI50: > 100 µM (inactive)

## CCNC(=O)c1cc(/C=C/c2ccc([N+](=O)[O-])o2)nc2ccccc12
[1]
  GI50: 29.8 µM (inactive)

## C=CCN1CCC(O)(c2cc(C(=O)OCC)[nH]c2-c2cc(C)no2)C1 (stereo unspecified)
[1]
  GI50: > 100 µM (inactive)

## COC(=O)c1c(C#C[Si](C)(C)C)c(C#C[Si](C)(C)C)c(C#C[Si](C)(C)C)c(C#C[Si](C)(C)C)c1C(=O)OC
[1]
  GI50: > 100 µM (inactive)

## Cn1c(S)nc(C(N)=O)c1N
[1]
  GI50: > 100 µM (inactive)

## C=CCC1(CN(C)C)CC/C(=C\c2cc(OC)c(OC)c(OC)c2)C1=O (stereo unspecified)
[7]
  GI50: 25.6 µM (inactive)
[2]
  GI50: 17.9 µM (inactive)
[8]
  GI50: 22.3 µM (inactive)
[3]
  GI50: > 10 µM (inactive)
[4]
  GI50: 20 µM (inactive)
[5]
  GI50: 28.1 µM (inactive)
[6]
  GI50: 37.1 µM (inactive)

## CC(=O)NC1C(OCc2ccccc2)OC(CO)C(O)C1OCC(=O)N[C@@H](C)C(=O)N[C@H](CCC(=O)NCCNc1ccc([N+](=O)[O-])c2[nH]c3ccccc3c(=O)c12)C(N)=O (stereo partly specified)
[1]
  GI50: 20.1 µM (inactive)

## CC[P+]1(c2ccccc2)CCCCC1
[7]
  GI50: > 100 µM (inactive)
[2]
  GI50: > 100 µM (inactive)
[8]
  GI50: > 100 µM (inactive)
[3]
  GI50: > 100 µM (inactive)
[4]
  GI50: > 100 µM (inactive)
[5]
  GI50: > 100 µM (inactive)
[6]
  GI50: > 100 µM (inactive)

## Cc1nc(N)c(N2CCN(Cc3ccccc3)CC2)c(O)n1
[1]
  GI50: > 100 µM (inactive)

## Cn1c(-c2cccs2)cc(-c2ccsc2)c1-c1cccs1
[1]
  GI50: > 100 µM (inactive)

## Cc1[nH]c(=O)nc(N/N=C/c2ccc(Cl)cc2)c1C(=O)Nc1ccc(Cl)cc1
[2]
  GI50: 23 µM (inactive)
[8]
  GI50: 1.22 µM (inactive)
[3]
  GI50: 12.6 µM (inactive)
[4]
  GI50: > 33.7 µM (inactive)
[5]
  GI50: > 100 µM (inactive)
[9]
  GI50: 4.68 µM (inactive)
[6]
  GI50: 16.1 µM (inactive)
[1]
  GI50: > 100 µM (inactive)

## Cc1cn(C2CC(OC(c3ccccc3)(c3ccccc3)c3ccccc3)C(COC(c3ccccc3)(c3ccccc3)c3ccccc3)O2)c(=O)[nH]c1=O (stereo unspecified)
[1]
  GI50: 27.5 µM (inactive)

## COc1ccc(C2C3=C(COC3=O)Oc3cc4c(cc32)OCO4)cc1 (stereo unspecified)
[8]
  GI50: 18.6 µM (inactive)
[3]
  GI50: 5.26 µM (inactive)
[4]
  GI50: 15.4 µM (inactive)
[5]
  GI50: 16.6 µM (inactive)
[9]
  GI50: 7.18 µM (inactive)
[6]
  GI50: 15.5 µM (inactive)

## CC(C)(C)OC(=O)N(CCCCNC(=O)OCc1ccccc1)CCCNC(=O)OCc1ccccc1
[1]
  GI50: 53 µM (inactive)

## N#CC(Cc1ccccc1)N(CCC1=CCCCC1)C(c1ccccc1)c1ccccc1 (stereo unspecified)
[1]
  GI50: > 100 µM (inactive)

## COc1cc(S(=O)(=O)Nc2ccc(-c3csc(N4C(=O)C(Cl)C4c4cccs4)n3)cc2)ccc1Cl (stereo unspecified)
[1]
  GI50: 87.7 µM (inactive)

## O=C(O)CCC(=O)OC1N=C(c2ccccc2Cl)c2cc([N+](=O)[O-])ccc2NC1=O (stereo unspecified)
[1]
  GI50: 89.1 µM (inactive)

## Cc1oc2c(C)c(O)c3c(c2c1C1(C)OCCO1)C(=O)C=C(Cl)C3=O
[7]
  GI50: > 100 µM (inactive)
[2]
  GI50: > 100 µM (inactive)
[3]
  GI50: > 100 µM (inactive)
[5]
  GI50: > 100 µM (inactive)
[9]
  GI50: 33.3 µM (inactive)
[6]
  GI50: > 100 µM (inactive)

## CC(=O)OC12OC(C)(C3C(=O)N(c4ccccc4)C(=O)C31)N(c1ccccc1)C2=O (stereo unspecified)
[1]
  GI50: > 100 µM (inactive)

## OCC1OC(c2scc3c(=S)[nH]cnc23)C(O)C1O (stereo unspecified)
[1]
  GI50: 27.5 µM (inactive)

## CCCCCCCCCCC[N+]1(Cc2ccccc2)CC2CCN(Cc3ccccc3)CC2C1 (stereo unspecified)
[1]
  GI50: 0.305 µM (active)

## CN(C)CCN(C)C(=O)C1CCCN1C(=O)OCc1ccccc1 (stereo unspecified)
[2]
  GI50: > 100 µM (inactive)
[3]
  GI50: > 100 µM (inactive)
[4]
  GI50: 71.3 µM (inactive)
[5]
  GI50: > 100 µM (inactive)
[9]
  GI50: > 100 µM (inactive)
[6]
  GI50: > 100 µM (inactive)
